Source: patent US11083789B2, “IVIG treatments for Bell's palsy” (InnoMed Technologies, Inc., priority 2019, dated 2021)

Assays:
[1] = system: Bell's Palsy; conditions: prednisolone 60 mg per day for 5 days then reduced by 10 mg per day, and 50 mg per day for 10 days; cited from earlier work
[2] = system: Bell's Palsy; experiment: Example 1: treatment of person suffering from Bell's Palsy; assay type: in vivo, human; conditions: 60 mg/day prednisone therapy alone, two weeks
Protocol: The patient, a person was diagnosed by their doctor after claiming they are suffering from unexplained facial weakness. The patient's doctor diagnosed the patient as suffering from Bell's Palsy. […] Two weeks after administration, the patient is co-administered a single dose of IVIG at 2 g/kg and 60 mg prednisone and Bell's Palsy related symptoms the patient suffered from are reduced by 70% within two weeks from the co-administration.

[3] = system: Bell's Palsy; experiment: Example 2: treatment of a person suffering from Bell's Palsy; assay type: in vivo, human; conditions: 60 mg/day prednisone therapy alone for a month
Protocol: The patient, a person is diagnosed by their doctor as suffering from Bell's Palsy. […] The patient is then administered IVIG at 2 g/kg and 60 mg prednisone. Within three weeks, the Bell's Palsy is resolved by about 80%. The patient is then administered a second dose of IVIG at 2 g/kg and 60 mg. prednisone. Within two weeks, the patient is resolved by about 95%.

Row | Compound | outcome in patients with Bell's palsy [1] | time to complete recovery [1] | reduction in the symptoms of Bell's Palsy [2] | resolution of Bell's Palsy [3]
1 | C[C@]12C=CC(=O)C=C1CC[C@@H]1[C@@H]2[C@@H](O)C[C@@]2(C)[C@H]1CC[C@]2(O)C(=O)CO [prednisolone] | improves outcome | shortens the time to complete recovery |  | 
2 | C[C@]12C=CC(=O)C=C1CC[C@@H]1[C@@H]2C(=O)C[C@@]2(C)[C@H]1CC[C@]2(O)C(=O)CO [prednisone] |  |  | no reduction | did not resolve
